Test results reported in PMC9073595, “Synthesis, human topoisomerase IIα inhibitory properties and molecular modeling studies of anti-proliferative curcumin mimics” (RSC Advances, 2019).

Assays:
[1] = biological target: T1, human DNA topoisomerase IIα (Homo sapiens, UniProt P11388); experiment: Human DNA topoisomerase IIα activity assay (TopoGEN kit, plasmid based); assay type: biochemical
T1 construct: purchased TopoGEN, Inc

[2] = tested on: MCF7 (breast) carcinoma cell line; experiment: MTT anti-proliferative assay, MCF7; assay type: cell-based; settings: Homo sapiens, MCF7, 72 h; read-out: IC50, μM ± SD, MCF7
[3] = tested on: A431 (squamous skin) carcinoma cell line; experiment: MTT anti-proliferative assay, A431; assay type: cell-based; settings: Homo sapiens, A-431, 72 h; read-out: IC50, μM ± SD, A431
[4] = tested on: HCT116 (colon) carcinoma cell line; experiment: MTT anti-proliferative assay, HCT116; assay type: cell-based; settings: Homo sapiens, HCT-116, 72 h; read-out: IC50, μM ± SD, HCT116
[5] = tested on: RPE1 (normal human immortalized retinal pigment epithelial cell line); experiment: MTT assay on normal cells, RPE1; assay type: cell-based; settings: RPE-1, RPE1 normal (non-cancer) cell line, read-out: IC50, μM ± SD, RPE1
Description: In-vitro antitumor screening
The targeted piperidinecarboxamides 24‒51 were screened for their antitumor properties against HCT116 (colon), MCF7 (breast) and A431 (squamous skin) carcinoma cell lines by the standard mitochondrial dependent reduction of yellow MTT [3-(4,5-dimethylthiazol-2-yl)-2,5-diphenyl-tetrazolium bromide] to purple formazan technique.11 Cells were suspended in McCoy’s 5A medium for HCT116, DMEM for MCF-7 and A431 in addition to 1% antibiotic–antimycotic mixture (10000 μg ml-1 potassium penicillin, 10000 μg ml-1 streptomycin sulfate and 25 μg ml-1 amphotericin B), 10% fetal bovine serum and 1% L-glutamine at 37 °C, under 5% CO2 and 95% humidity. Cells were seeded at concentration of 30000 cells per well in fresh complete growth medium in 96-well tissue culture microtiter plates for 24 h. Media was aspirated, fresh complete medium was added and cells were incubated with different concentrations of the tested compound to give a final concentration of [50, 25, 12.5 and 6.25 μM ([…] and 0.375 μM for the high potent analogues)]. 0.5% DMSO was used as negative control and 5-fluorouracil was used as positive control (standard reference). Triplicate wells were prepared for each individual dose. After 72 h of incubation, medium was aspirated, 40 μl MTT salt (2.5 mg ml-1) were added to each well and incubated for further 4 h at 37 °C.
To stop the reaction and dissolve the formed crystals, 150 μl of 10% sodium dodecyl sulfate (SDS) in deionized water were added to each well and incubated overnight at 37 °C. The absorbance was then measured at 570 nm and a reference wavelength of 595 nm.
Data were collected as mean values for experiments performed in triplicates for each individual dose which had been measured by MTT assay. Control experiments did […]
survival was calculated according to equ. (1).
Surviving fraction = … . (1)
The synthesized compounds 24‒51 were also tested against RPE1 (normal human immortalized retinal pigment epithelial cell line) cell to determine the toxicity/selectivity […]
towards normal cells relative to the carcinoma cell lines utilized. The IC50 (concentration […]
was determined using Graph-Pad PRISM version-5 software. Statistical calculations for determination of the mean and standard error values were determined by SPSS 16 […]
8:1 which is the ratio between the data points and the number of QSAR descriptor).
Human DNA topoisomerase IIα inhibitory properties

T1 sequence (P11388 whole entry): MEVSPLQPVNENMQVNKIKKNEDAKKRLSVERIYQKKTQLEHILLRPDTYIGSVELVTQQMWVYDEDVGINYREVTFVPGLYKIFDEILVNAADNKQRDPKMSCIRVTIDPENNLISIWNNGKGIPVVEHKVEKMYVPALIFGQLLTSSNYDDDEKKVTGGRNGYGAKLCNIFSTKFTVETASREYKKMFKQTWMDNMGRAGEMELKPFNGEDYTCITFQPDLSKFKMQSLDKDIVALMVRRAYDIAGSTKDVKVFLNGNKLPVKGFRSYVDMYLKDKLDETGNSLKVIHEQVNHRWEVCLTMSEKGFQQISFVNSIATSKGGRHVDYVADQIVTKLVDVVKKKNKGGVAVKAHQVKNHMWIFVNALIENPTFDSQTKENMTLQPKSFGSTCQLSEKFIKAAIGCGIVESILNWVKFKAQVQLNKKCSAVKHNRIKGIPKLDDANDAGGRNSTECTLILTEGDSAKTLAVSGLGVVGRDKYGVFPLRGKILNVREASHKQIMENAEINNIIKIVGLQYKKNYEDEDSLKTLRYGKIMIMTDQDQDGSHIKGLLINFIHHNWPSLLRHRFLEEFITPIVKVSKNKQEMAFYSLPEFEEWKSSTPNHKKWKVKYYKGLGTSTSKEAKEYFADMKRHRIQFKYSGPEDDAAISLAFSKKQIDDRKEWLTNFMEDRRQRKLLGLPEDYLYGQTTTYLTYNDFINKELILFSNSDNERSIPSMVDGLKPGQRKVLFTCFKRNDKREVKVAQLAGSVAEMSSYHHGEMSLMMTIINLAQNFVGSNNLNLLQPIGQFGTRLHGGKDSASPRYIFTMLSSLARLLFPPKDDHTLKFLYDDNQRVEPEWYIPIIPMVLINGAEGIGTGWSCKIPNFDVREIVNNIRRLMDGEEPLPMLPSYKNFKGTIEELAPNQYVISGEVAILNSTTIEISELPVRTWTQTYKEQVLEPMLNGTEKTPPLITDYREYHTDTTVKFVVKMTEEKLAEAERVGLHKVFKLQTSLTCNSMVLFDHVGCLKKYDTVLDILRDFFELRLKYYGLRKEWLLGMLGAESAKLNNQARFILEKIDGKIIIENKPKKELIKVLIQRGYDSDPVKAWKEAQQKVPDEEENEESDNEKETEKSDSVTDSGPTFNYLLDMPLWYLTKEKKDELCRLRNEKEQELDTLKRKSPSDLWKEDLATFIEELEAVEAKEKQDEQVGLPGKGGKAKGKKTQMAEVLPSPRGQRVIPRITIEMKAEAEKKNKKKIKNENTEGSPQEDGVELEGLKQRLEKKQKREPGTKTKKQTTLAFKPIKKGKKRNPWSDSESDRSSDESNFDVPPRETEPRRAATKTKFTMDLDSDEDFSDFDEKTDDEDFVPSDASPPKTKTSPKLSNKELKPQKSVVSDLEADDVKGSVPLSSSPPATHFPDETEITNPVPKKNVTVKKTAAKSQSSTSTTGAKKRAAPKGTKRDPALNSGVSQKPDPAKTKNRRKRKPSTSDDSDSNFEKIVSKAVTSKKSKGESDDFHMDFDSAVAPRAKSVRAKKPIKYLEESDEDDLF

Row | Structure (SMILES) | IC50 [1] | IC50 [2] | IC50 [3] | IC50 [4] | IC50 [5] | melting point
1 | COc1ccc(/C=C\c2cc(OC)c(OC)c(OC)c2)cc1O [Combretastatin A-4, reference compound] | 22 ± 0.85 µM |  |  |  |  | 
2 | O=C1/C(=C/c2ccccc2)CN(C(=O)Nc2ccccc2)C/C1=C\c1ccccc1 [Compound 24, 3,5-Di[(E)-benzylidene]-4-oxo-N-phenylpiperidine-1-carboxamide] |  | 1.83 ± 0.14 µM | 2.49 ± 0.31 µM | 1.08 ± 0.18 µM | 16.6 ± 1.57 µM | 179 to 181 °C
3 | O=C1/C(=C/c2ccccc2)CN(C(=O)Nc2ccc(Cl)cc2)C/C1=C\c1ccccc1 [Compound 25, 3,5-Di[(E)-benzylidene]-N-(4-chlorophenyl)-4-oxopiperidine-1-carboxamide] |  | 2.09 ± 0.26 µM | 2.51 ± 0.24 µM | 1.03 ± 0.29 µM | 22.1 ± 2.06 µM | 186 to 188 °C
4 | COc1ccc(NC(=O)N2C/C(=C\c3ccccc3)C(=O)/C(=C/c3ccccc3)C2)cc1 [Compound 26, 3,5-Di[(E)-benzylidene]-N-(4-methoxyphenyl)-4-oxopiperidine-1-carboxamide] |  | 2.48 ± 0.31 µM | 2.83 ± 0.36 µM | 1.43 ± 0.2 µM | 17.7 ± 1.98 µM | 184 to 186 °C
5 | CCNC(=O)N1C/C(=C\c2ccccc2)C(=O)/C(=C/c2ccccc2)C1 [Compound 27, 3,5-Di[(E)-benzylidene]-N-ethyl-4-oxopiperidine-1-carboxamide] | 33.6 ± 1.3 µM | 2.95 ± 0.24 µM | 2.56 ± 0.29 µM | 1.61 ± 0.14 µM | > 50 µM | 172 to 174 °C
6 | O=C1/C(=C/c2ccccc2)CN(C(=O)NCc2ccccc2)C/C1=C\c1ccccc1 [Compound 28, N-Benzyl-3,5-di[(E)-benzylidene]-4-oxopiperidine-1-carboxamide] |  | 2.58 ± 0.3 µM | 2.58 ± 0.27 µM | 1.31 ± 0.22 µM | 12 ± 1.76 µM | 163 to 165 °C
7 | O=C1/C(=C/c2ccc(Cl)cc2)CN(C(=O)Nc2ccccc2)C/C1=C\c1ccc(Cl)cc1 [Compound 29, 3,5-Bis[(E)-4-chlorobenzylidene]-4-oxo-N-phenylpiperidine-1-carboxamide] | 29 ± 1.39 µM | 1.33 ± 0.24 µM | 1.29 ± 0.15 µM | 0.7 ± 0.06 µM | 9.67 ± 2.03 µM | 205 to 207 °C
8 | O=C1/C(=C/c2ccc(Cl)cc2)CN(C(=O)Nc2ccc(Cl)cc2)C/C1=C\c1ccc(Cl)cc1 [Compound 30, 3,5-Bis[(E)-4-chlorobenzylidene]-N-(4-chlorophenyl)-4-oxopiperidine-1-carboxamide] | 41.8 ± 2.42 µM | 1.13 ± 0.29 µM | 0.64 ± 0.08 µM | 0.58 ± 0.07 µM | 4.89 ± 1.97 µM | 185 to 187 °C
9 | COc1ccc(NC(=O)N2C/C(=C\c3ccc(Cl)cc3)C(=O)/C(=C/c3ccc(Cl)cc3)C2)cc1 [Compound 31, 3,5-Bis[(E)-4-chlorobenzylidene]-N-(4-methoxyphenyl)-4-oxopiperidine-1-carboxamide] |  | 1.44 ± 0.19 µM | 1.24 ± 0.14 µM | 1.03 ± 0.13 µM | 7.5 ± 1.75 µM | 210 to 212 °C
10 | CCNC(=O)N1C/C(=C\c2ccc(Cl)cc2)C(=O)/C(=C/c2ccc(Cl)cc2)C1 [Compound 32, 3,5-Bis[(E)-4-chlorobenzylidene]-N-ethyl-4-oxopiperidine-1-carboxamide] |  | 2.35 ± 0.23 µM | 1.31 ± 0.09 µM | 1.04 ± 0.11 µM | 12.1 ± 1.76 µM | 211 to 213 °C
11 | O=C1/C(=C/c2ccc(Cl)cc2)CN(C(=O)NCc2ccccc2)C/C1=C\c1ccc(Cl)cc1 [Compound 33, N-Benzyl-3,5-bis[(E)-4-chlorobenzylidene]-4-oxopiperidine-1-carboxamide] |  | 2.14 ± 0.26 µM | 1.45 ± 0.12 µM | 1.13 ± 0.19 µM | 11.4 ± 1.68 µM | 199 to 201 °C
12 | O=C1/C(=C/c2ccc(F)cc2)CN(C(=O)Nc2ccccc2)C/C1=C\c1ccc(F)cc1 [Compound 34, 3,5-Bis[(E)-4-fluorobenzylidene]-4-oxo-N-phenylpiperidine-1-carboxamide] | 30.7 ± 1.32 µM | 2.34 ± 0.29 µM | 1.27 ± 0.09 µM | 0.56 ± 0.04 µM | 17.5 ± 2.16 µM | 191 to 193 °C
13 | O=C1/C(=C/c2ccc(F)cc2)CN(C(=O)Nc2ccc(Cl)cc2)C/C1=C\c1ccc(F)cc1 [Compound 35, N-(4-Chlorophenyl)-3,5-bis[(E)-4-fluorobenzylidene]-4-oxopiperidine-1-carboxamide] | 26.4 ± 1.61 µM | 1.36 ± 0.17 µM | 1.2 ± 0.14 µM | 0.56 ± 0.06 µM | 8.26 ± 2.33 µM | 192 to 194 °C
14 | COc1ccc(NC(=O)N2C/C(=C\c3ccc(F)cc3)C(=O)/C(=C/c3ccc(F)cc3)C2)cc1 [Compound 36, 3,5-Bis[(E)-4-fluorobenzylidene]-N-(4-methoxyphenyl)-4-oxopiperidine-1-carboxamide] | 23 ± 1.37 µM | 1.71 ± 0.12 µM | 1.31 ± 0.08 µM | 0.62 ± 0.05 µM | 9.46 ± 1.86 µM | 189 to 191 °C
15 | CCNC(=O)N1C/C(=C\c2ccc(F)cc2)C(=O)/C(=C/c2ccc(F)cc2)C1 [Compound 37, N-Ethyl-3,5-bis[(E)-4-fluorobenzylidene]-4-oxopiperidine-1-carboxamide] | 27.2 ± 1.72 µM | 2.32 ± 0.3 µM | 1.18 ± 0.11 µM | 0.57 ± 0.07 µM | 9.78 ± 1.53 µM | 180 to 182 °C
16 | O=C1/C(=C/c2cccs2)CN(C(=O)Nc2ccccc2)C/C1=C\c1cccs1 [Compound 48, (3E,5E)-4-Oxo-N-phenyl-3,5-bis(thiophen-2-ylmethylene)piperidine-1-carboxamide] |  | 33.7 ± 1.38 µM | > 50 µM | > 50 µM | > 50 µM | 
17 | COc1ccc(NC(=O)N2C/C(=C\c3cccs3)C(=O)/C(=C/c3cccs3)C2)cc1 [Compound 49, (3E,5E)-N-(4-Methoxyphenyl)-4-oxo-3,5-bis(thiophen-2-ylmethylene)piperidine-1-carboxamide] |  | 24.7 ± 1.99 µM | > 50 µM | 40.8 ± 2.61 µM | > 50 µM | 194 to 196 °C
18 | CCNC(=O)N1C/C(=C\c2cccs2)C(=O)/C(=C/c2cccs2)C1 [Compound 50, (3E,5E)-N-Ethyl-4-oxo-3,5-bis(thiophen-2-ylmethylene)piperidine-1-carboxamide] |  | 21.7 ± 2.78 µM | 40.6 ± 2.88 µM | 20.1 ± 2.44 µM | 47.4 ± 2.66 µM | 197 to 199 °C
19 | O=C1/C(=C/c2cccs2)CN(C(=O)NCc2ccccc2)C/C1=C\c1cccs1 [Compound 51, (3E,5E)-N-Benzyl-4-oxo-3,5-bis(thiophen-2-ylmethylene)piperidine-1-carboxamide] |  | > 50 µM | > 50 µM | > 50 µM | > 50 µM | 
20 | COc1cc(/C=C/C(=O)CC(=O)/C=C/c2ccc(O)c(OC)c2)ccc1O [Curcumin] |  | 16 ± 2.04 µM |  | 38.2 ± 2.36 µM |  | 
